{"source": "patent US20050281889A1", "about": "“Nutritional supplement for adults” (priority 2004, published 2005)", "key": {"[1]": {"conditions": "in vivo; cited from earlier work"}, "blood lymphocytes": {"system": "blood lymphocytes", "assay": "Zinc dose response: lymphocyte response to mitogen PHA (thymidine uptake, 72 h culture)", "format": "in vivo, human", "conditions": "for Lymphocyte response to PHA (stimulation index): adults, age 20-50 years", "experimental": "The basic concept underlying the assessment of the most optimum nutrient amounts for a given age group uses the principle of “dose-response graphs”. At least four groups of individuals were provided with various amounts of a given nutrient and their immune responses were measured using established and accepted techniques. The amount of a nutrient that gave the best response was considered the optimum amount. Dose response graphs were determined for all vitamins and trace elements considered essential for human health, particularly immunity.\nData for the dose response chart for zinc in a group of 20 to 50 year old adults is shown in FIG. 1, with the total amount of zinc taken is shown for each group. To determine the magnitude of immune response, an aliquot of blood was withdrawn from each subject in the study, blood lymphocytes were separated, washed and mixed with the mitogen phytohemagglutinin (PHA) in previously determined optimum amount. The optimum amount of PHA used in the experiments was predetermined by a set of dose response graphs using lymphocytes of a healthy donor and four different concentrations of PHA. After culture in a sterile environment for 72 hours, the cells were washed and mixed with radioactive thymidine. The same steps were undertaken in a control sample in which only the culture medium was used, not PHA. The cells were washed and radioactivity determined.\nDietary intake of zinc was calculated based on three 24-hour recalls and by the food frequency questionnaire methods."}}, "data": [{"smiles": "Cc1ncc(C[n+]2csc(CCO)c2C)c(N)n1", "note": "[Thiamin]", "values": [{"measurement": "biologic half-life in the body", "setting": "[1]", "value": "about 15 days"}]}, {"smiles": "[Zn]", "note": "[zinc]", "values": [{"measurement": "immune response", "setting": "blood lymphocytes; 12 mg of zinc intake, in combination with zinc from a balanced diet", "value": "best immune response"}, {"measurement": "Lymphocyte response to PHA (stimulation index)", "setting": "blood lymphocytes; supplemental zinc 12 mg", "value": 78}, {"measurement": "Lymphocyte response to PHA (stimulation index)", "setting": "blood lymphocytes; supplemental zinc 25 mg", "value": 48}, {"measurement": "Lymphocyte response to PHA (stimulation index)", "setting": "blood lymphocytes; supplemental zinc 50 mg", "value": 41}]}]}
